# Results: patent publication US6664397B1, “Use of (+)mefloquine for the treatment of malaria” (Vernalis Research Limited, priority 1997, dated 2003)
# Tests used:
# [1] = molecular target: T1, human recombinant (HEK-293) adenosine A3 receptors (Homo sapiens, UniProt P0DMS8); conditions: comparative literature data for reference ligands; cited from earlier work
# T1 construct: expressed in transfected cells; host or cells: HEK-293
# T1 sequence (P0DMS8 1-318): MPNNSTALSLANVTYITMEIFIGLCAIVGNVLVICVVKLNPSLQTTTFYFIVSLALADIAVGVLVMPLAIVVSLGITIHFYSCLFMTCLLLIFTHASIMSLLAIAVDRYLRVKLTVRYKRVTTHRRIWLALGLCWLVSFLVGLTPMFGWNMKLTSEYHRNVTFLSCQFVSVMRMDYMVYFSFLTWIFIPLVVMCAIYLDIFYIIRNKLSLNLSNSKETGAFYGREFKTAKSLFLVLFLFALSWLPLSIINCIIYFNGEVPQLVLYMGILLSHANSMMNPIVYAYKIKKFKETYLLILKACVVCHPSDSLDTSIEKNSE
# Plasmodium falciparum = conditions: Karle et al. 1993; cited from earlier work
# [2] = molecular target: bovine striatal adenosine receptors (non-selective); conditions: displacement of [3H]-NECA
# mice [3] = assay: Irwin screen of overt physiological and behavioral effects in mice; conditions: for reduced activity, unkempt appearance, hunched body posture (late effects): high dose, daily p.o. dosing, about five days
# mice [4] = assay: Potentiation of pentylenetetrazole-induced seizures (proconvulsant effect) in mice; conditions: 300 mg/kg p.o., 24 hrs after a single dose
# [5] = molecular target: T2, adenosine A2A receptors endogenously expressed in PC-12 cells (Rattus norvegicus, UniProt P30543); assay: Agonist-induced increase in extracellular acidification rate (ECAR) in PC-12 cells, cytosensor microphysiometer; assay type: cell-based
# T2 construct: PC12 cells endogenously express adenosine A2A receptors; host or cells: PC-12 cells
# Procedure: PC-12 cells (purchased from ECACC) were maintained in RPMI 1640 media (Sigma) supplemented with 2 mM L-glutamine and 10% FCS in a controlled environment of 5% CO2, 95% humidity at 37° C.
# On the day of the assay the cells were gently harvested and centrifuged at 700 RPM for 10 min. The supernatant was discarded and the pellet re-suspended to a final density of approx. 1×10^6 cells/ml in modified RPMI 1640 media. 600 μl of this suspension was mixed with 200 μl of molten agarose cell entrapment media (Molecular Devices) pre-incubated to 37° C. The cell suspension was returned to the incubator for a further 10 minutes for equilibration. 10 μl of this cell agarose suspension was spotted onto the middle of the capsule insert well and allowed to set before being placed in the sensor chambers in the cytosensor® microphysiometer. […]
# Agonist concentration curves were constructed by exposing the cells to increasing concentrations of agonist for a total exposure time of approximately 1 min 53 sec. Agonist concentration curves in the presence of antagonists were performed following pre-incubation of the cells to the antagonists for at least 20 min prior to agonist exposure (in the presence of the fixed antagonist concentration) Baseline acidification rates were normalised to 100%, and all responses were calculated as a % increase over normalised baseline. […]
# travellers = conditions: 3851 travellers surveyed, prophylactic use; cited from earlier work
# T2 sequence (P30543 whole entry): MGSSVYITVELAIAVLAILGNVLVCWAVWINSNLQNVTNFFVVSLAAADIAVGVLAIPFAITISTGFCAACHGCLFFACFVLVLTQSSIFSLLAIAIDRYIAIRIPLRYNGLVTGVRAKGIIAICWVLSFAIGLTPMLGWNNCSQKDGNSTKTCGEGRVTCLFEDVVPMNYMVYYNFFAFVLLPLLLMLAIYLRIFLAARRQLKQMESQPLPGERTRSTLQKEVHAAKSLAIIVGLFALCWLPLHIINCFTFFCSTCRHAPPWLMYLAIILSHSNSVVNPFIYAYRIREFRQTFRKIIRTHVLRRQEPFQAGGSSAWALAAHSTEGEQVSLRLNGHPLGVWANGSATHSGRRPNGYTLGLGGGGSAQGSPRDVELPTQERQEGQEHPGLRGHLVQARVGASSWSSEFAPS
SMILES,Ki [1],Ki [2],"reduced activity, unkempt appearance, hunched body posture (late effects) (mice [3])",other results
Nc1nc(NCCc2ccc(O)cc2)nc2nc(-c3ccco3)nn12 [ZM241385],151 µM,,,
"O[C@H](c1cc(C(F)(F)F)nc2c(C(F)(F)F)cccc12)[C@@H]1CCCCN1 [(+)-enantiomer, (+)-(11R,2′S)-α-2-piperidinyl-2,8-bis(trifluoromethyl)-4-quinolinemethanol]",,38 µM,"these effects only became apparent after 5-6 days, and did not include seizures",factor by which the (+)-enantiomer was more potent than the (−)-enantiomer (Plasmodium falciparum): 1.69-1.81
"CNC(=O)[C@H]1O[C@@H](n2cnc3c(N)ncnc32)[C@H](O)[C@@H]1O [MECA, 5′-N-methylcarboxamidoadenosine, reference compound]",,0.058 µM,,
OC[C@H]1O[C@@H](n2cnc3c(NC4CCCCC4)ncnc32)[C@H](O)[C@@H]1O [CHA],7.7 µM,,,
"O[C@@H](c1cc(C(F)(F)F)nc2c(C(F)(F)F)cccc12)[C@H]1CCCCN1 [(−)-enantiomer, (−)-(11S,2′R)-α-2-piperidinyl-2,8-bis(trifluoromethyl)-4-quinolinemethanol]",,0.083 µM,"showed reduced activity, unkempt appearance and assumed a hunched body posture","behavioral effects twenty-four hours after the first dose (mice [3]; 300 mg/kg p.o., 24 hours): difficult to handle and displayed aggression toward cage-mates; qualitative behavioral difference between the enantiomers (mice [3]; daily dosing 30, 100, 300 mg/kg p.o.): appearing more potent in eliciting spontaneous seizures, irritability and aggressiveness; latency to onset of clonic seizures induced by infusion of pentylenetetrazole (PTZ) (mice [4]): significantly reduced the latency to onset of clonic seizures; effect on the CGS 21680-induced increase in ECAR ([5]; agonist CGS 21680, FIG. 6): specific to adenosine A2A receptors; effect on the NECA-induced increase in ECAR ([5]; agonist NECA, FIG. 5): binds to adenosine receptors as an antagonist"
"O[C@H](c1cc(C(F)(F)F)nc2c(C(F)(F)F)cccc12)[C@@H]1CCCCN1 (racemic) [mefloquine, (R*,S*)-(±)-α-2-Piperidinyl-2,8-bis(trifluoromethyl)-4-quinolinemethanol]",,,,adverse neuropsychiatric events compared with proguanil plus chloroquine (travellers): significant excess of adverse neuropsychiatric events
